Test results from patent US10221129B2, “Inhibitors of human immunodeficiency virus replication” (ViiV HEALTHCARE UK (NO.5) LIMITED, priority 2015, dated 2019).

How the values were obtained:
[1] = Compound cytotoxicity, XTT-based colorimetric assay; assay type: cell-based; details: human, uninfected MT2 cells, day 4, XTT
Procedure: Compound cytotoxicity and the corresponding CC50 values were determined using the same protocol as described in the antiviral assay except that uninfected cells were used. Cytotoxicity was assessed on day 4 in uninfected MT2 cells by using a XTT (2,3-bis[2-Methoxy-4-nitro-5-sulfophenyl]-2H-tetrazolium-5-carboxyanilide inner salt)-based colorimetric assay (Sigma-Aldrich, St Louis, Mo.).

[2] = test system: recombinant NL4-3 virus (nef section replaced with Renilla luciferase gene) in MT-2 cells; experiment: HIV cell culture assay (antiviral activity, luciferase readout); assay type: cell-based; details: Renilla, NL43, MT-2 cells infected for 4-5 days with recombinant NL4-3 Renilla luciferase virus
Procedure: HIV cell culture assay—MT-2 cells, 293T cells and the proviral DNA clone of NL4-3 virus were obtained from the NIH AIDS Research and Reference Reagent Program. MT-2 cells were propagated in RPMI 1640 media supplemented with 10% heat inactivated fetal bovine serum (FBS), 100 jag/ml penicillin G and up to 100 units/mL streptomycin. The 293T cells were propagated in DMEM media supplemented with 10% heat inactivated FBS, 100 μg/mL penicillin G and 100 μg/mL streptomycin. A recombinant NL4-3 proviral clone, in which a section of the nef gene was replaced with the Renilla luciferase gene, was used to make the reference virus used in these studies. The recombinant virus was prepared through transfection of the recombinant NL4-3 proviral clone into 293T cells using Transit-293 Transfection Reagent from Mirus Bio LLC (Madison, Wis.). Supernatant was harvested after 2-3 days and the amount of virus present was titered in MT-2 cells using luciferase enzyme activity as a marker by measuring luciferase enzyme activity. Luciferase was quantitated using the EnduRen Live Cell Substrate from Promega (Madison, Wis.). Antiviral activities of compounds toward the recombinant virus were quantified by measuring luciferase activity in MT-2 cells infected for 4-5 days with the recombinant virus in the presence of serial dilutions of the compound.
(Johnson V A, Byington R T. Infectivity Assay. In Techniques in HIV Research. ed. Aldovini A, Walker B D. 71-76. New York: Stockton Press. 1990).

| Structure (SMILES) | CC50 at 4 days [1] | EC50 [2] |
| --- | --- | --- |
| COc1ccc(N(C)C(=O)[C@H](Cc2ccccc2)NC(=O)NS(=O)(=O)NCC(=O)N2CCN(c3ccccc3)CC2)cc1 [CA-58] | > 100000 nM | 7450 nM |
| COc1ccc(N(C)C(=O)[C@H](Cc2ccccc2)NC(=O)NS(=O)(=O)NCC(=O)N2CCOCC2)cc1 [CA-59] | > 100000 nM | 6140 nM |
| COc1ccc(N(C)C(=O)[C@H](Cc2ccccc2)NC(=O)NS(=O)(=O)Nc2ccccc2C(F)(F)F)cc1 [CA-60] | > 100000 nM | 870 nM |
| COc1ccc(N(C)C(=O)[C@H](Cc2ccccc2)NC(=O)NS(=O)(=O)n2ccc3ccncc32)cc1 [CA-61] | > 100000 nM | 400 nM |
| COc1ccc(N(C)C(=O)[C@H](Cc2ccccc2)NC(=O)NS(=O)(=O)n2c(C)cc3ccncc32)cc1 [CA-62] | > 100000 nM | 3690 nM |
| COc1ccc(N(C)C(=O)[C@H](Cc2ccccc2)NC(=O)NS(=O)(=O)n2nc(-c3ccccc3)c3ccccc32)cc1 [CA-63] | 73700 nM | 30200 nM |
| COc1ccc(N(C)C(=O)[C@H](Cc2ccccc2)NC(=O)NS(=O)(=O)n2c(C)cc3ccc(OC)cc32)cc1 [CA-64] | 62400 nM | 440 nM |
| COc1ccc(N(C)C(=O)[C@H](Cc2ccccc2)NC(=O)NS(=O)(=O)n2c(C)cc3cc(F)c(O)cc32)cc1 [CA-65] | > 100000 nM | 4040 nM |
| COc1ccc(N(C)C(=O)[C@H](Cc2ccccc2)NC(=O)NS(=O)(=O)n2ncc3c(Cl)nc(Cl)cc32)cc1 [CA-66] | > 100000 nM | 14600 nM |
| CN(C(=O)[C@H](Cc1cc(F)cc(F)c1)NC(=O)NS(=O)(=O)N(C)c1ccccn1)c1ccc2scnc2c1 [CA-113] | > 100000 nM | 140 nM |
| CN(C(=O)[C@H](Cc1cc(F)cc(F)c1)NC(=O)NS(=O)(=O)Nc1ccccn1)c1ccc2scnc2c1 [CA-114] | > 100000 nM | 100 nM |
| CN(C(=O)[C@H](Cc1cc(F)cc(F)c1)NC(=O)NS(=O)(=O)Nc1ccccc1)c1ccc2scnc2c1 [CA-115] | > 100000 nM | 60 nM |
| CN(C(=O)[C@H](Cc1cc(F)cc(F)c1)NC(=O)NS(=O)(=O)Nc1cccc(Cl)c1)c1ccc2scnc2c1 [CA-116] | 73200 nM | 60 nM |
| CN(C(=O)[C@H](Cc1cc(F)cc(F)c1)NC(=O)NS(=O)(=O)N(C)c1ccccc1F)c1ccc2scnc2c1 [CA-117] | > 100000 nM | 120 nM |
| COc1ccc(N(C)S(=O)(=O)NC(=O)N[C@@H](Cc2cc(F)cc(F)c2)C(=O)N(C)c2ccc3scnc3c2)cn1 [CA-118] | > 100000 nM | 160 nM |
| COc1cccc(N(C)S(=O)(=O)NC(=O)N[C@@H](Cc2cc(F)cc(F)c2)C(=O)N(C)c2ccc3scnc3c2)c1 [CA-119] | > 33300 nM | 60 nM |
| CN(C(=O)[C@H](Cc1cc(F)cc(F)c1)NC(=O)NS(=O)(=O)N(C)c1cccnc1)c1ccc2scnc2c1 [CA-120] | > 100000 nM | 270 nM |
| CCN(c1cccnc1)S(=O)(=O)NC(=O)N[C@@H](Cc1cc(F)cc(F)c1)C(=O)N(C)c1ccc2scnc2c1 [CA-121] | 7300 nM | 990 nM |
| CN1CCN(S(=O)(=O)NC(=O)N[C@@H](Cc2cc(F)cc(F)c2)C(=O)N(C)c2ccc3scnc3c2)CC1 [CA-122] | > 33300 nM | 280 nM |
| CN(C(=O)[C@H](Cc1cc(F)cc(F)c1)NC(=O)NS(=O)(=O)Nc1cccnc1)c1ccc2scnc2c1 [CA-123] | > 100000 nM | 160 nM |
| CCNS(=O)(=O)NC(=O)N[C@@H](Cc1cc(F)cc(F)c1)C(=O)N(C)c1ccc2scnc2c1 [CA-124] | > 100000 nM | 110 nM |
| CN(C(=O)[C@H](Cc1cc(F)cc(F)c1)NC(=O)NS(=O)(=O)N(C)CCO)c1ccc2scnc2c1 [CA-125] | > 100000 nM | 160 nM |
| CN(C(=O)[C@H](Cc1cc(F)cc(F)c1)NC(=O)NS(=O)(=O)NCc1ccccc1)c1ccc2scnc2c1 [CA-126] | > 100000 nM | 520 nM |
| CN(C(=O)[C@H](Cc1cc(F)cc(F)c1)NC(=O)NS(=O)(=O)NCC1CC1)c1ccc2scnc2c1 [CA-127] | > 100000 nM | 60 nM |
| COC1CN(S(=O)(=O)NC(=O)N[C@@H](Cc2cc(F)cc(F)c2)C(=O)N(C)c2ccc3scnc3c2)C1 [CA-128] | > 100000 nM | 100 nM |
| CN(C(=O)[C@H](Cc1cc(F)cc(F)c1)NC(=O)NS(=O)(=O)N1CC(C)(O)C1)c1ccc2scnc2c1 [CA-129] | > 100000 nM | 140 nM |

| Structure (SMILES) | CC50 at 4 days [1] | EC50 [2] |
| --- | --- | --- |
| CN(C(=O)[C@H](Cc1cc(F)cc(F)c1)NC(=O)NS(=O)(=O)N1CC(F)(F)C1)c1ccc2scnc2c1 [CA-130] | > 100000 nM | 450 nM |
| CN(C(=O)[C@H](Cc1cc(F)cc(F)c1)NC(=O)NS(=O)(=O)N1CCC[C@H]1CO)c1ccc2scnc2c1 [CA-131] | > 100000 nM | 210 nM |
| CN(C(=O)[C@H](Cc1cc(F)cc(F)c1)NC(=O)NS(=O)(=O)NC1CCC1)c1ccc2scnc2c1 [CA-132] | > 100000 nM | 50 nM |
| CN(C(=O)[C@H](Cc1cc(F)cc(F)c1)NC(=O)NS(=O)(=O)N1CCC(Cc2ccccc2)CC1)c1ccc2scnc2c1 [CA-133] | 86400 nM | 720 nM |
| CN(C(=O)[C@H](Cc1cc(F)cc(F)c1)NC(=O)NS(=O)(=O)NCc1ccccn1)c1ccc2scnc2c1 [CA-134] | > 100000 nM | 430 nM |
| CN(C(=O)[C@H](Cc1cc(F)cc(F)c1)NC(=O)NS(=O)(=O)NCc1cccnc1)c1ccc2scnc2c1 [CA-135] | > 100000 nM | 1530 nM |
| CC(C)NS(=O)(=O)NC(=O)N[C@@H](Cc1cc(F)cc(F)c1)C(=O)N(C)c1ccc2scnc2c1 [CA-136] | > 100000 nM | 60 nM |
| CC(=O)NCCNS(=O)(=O)NC(=O)N[C@@H](Cc1cc(F)cc(F)c1)C(=O)N(C)c1ccc2scnc2c1 [CA-137] | > 100000 nM | 1220 nM |
| CN(C(=O)[C@H](Cc1cc(F)cc(F)c1)NC(=O)NS(=O)(=O)NCCO)c1ccc2scnc2c1 [CA-138] | > 100000 nM | 270 nM |
| CN(C(=O)[C@H](Cc1cc(F)cc(F)c1)NC(=O)NS(=O)(=O)N(C)Cc1ccccc1)c1ccc2scnc2c1 [CA-139] | > 100000 nM | 220 nM |
| CC(C)CN(C)S(=O)(=O)NC(=O)N[C@@H](Cc1cc(F)cc(F)c1)C(=O)N(C)c1ccc2scnc2c1 [CA-140] | > 100000 nM | 40 nM |
| CCCN(C)S(=O)(=O)NC(=O)N[C@@H](Cc1cc(F)cc(F)c1)C(=O)N(C)c1ccc2scnc2c1 [CA-141] | > 100000 nM | 40 nM |
| CN(C(=O)[C@H](Cc1cc(F)cc(F)c1)NC(=O)NS(=O)(=O)NC1CC1)c1ccc2scnc2c1 [CA-142] | > 100000 nM | 40 nM |
| CN(C(=O)[C@H](Cc1cc(F)cc(F)c1)NC(=O)NS(=O)(=O)NCC(C)(C)C)c1ccc2scnc2c1 [CA-143] | > 100000 nM | 50 nM |
| CC(C)CNS(=O)(=O)NC(=O)N[C@@H](Cc1cc(F)cc(F)c1)C(=O)N(C)c1ccc2scnc2c1 [CA-144] | > 100000 nM | 40 nM |
| CC(C)CCNS(=O)(=O)NC(=O)N[C@@H](Cc1cc(F)cc(F)c1)C(=O)N(C)c1ccc2scnc2c1 [CA-145] | > 100000 nM | 120 nM |
| CCCNS(=O)(=O)NC(=O)N[C@@H](Cc1cc(F)cc(F)c1)C(=O)N(C)c1ccc2scnc2c1 [CA-146] | > 100000 nM | 50 nM |
| CC(C)N(C)S(=O)(=O)NC(=O)N[C@@H](Cc1cc(F)cc(F)c1)C(=O)N(C)c1ccc2scnc2c1 [CA-147] | > 100000 nM | 80 nM |
| CC(=O)N1CCN(S(=O)(=O)NC(=O)N[C@@H](Cc2cc(F)cc(F)c2)C(=O)N(C)c2ccc3scnc3c2)CC1 [CA-148] | > 100000 nM | 10300 nM |
| COCCN(C)S(=O)(=O)NC(=O)N[C@@H](Cc1cc(F)cc(F)c1)C(=O)N(C)c1ccc2scnc2c1 [CA-149] | > 100000 nM | 80 nM |
| Cc1cnc(CNS(=O)(=O)NC(=O)N[C@@H](Cc2cc(F)cc(F)c2)C(=O)N(C)c2ccc3scnc3c2)cn1 [CA-150] | > 100000 nM | 460 nM |
| CN(C(=O)[C@H](Cc1cc(F)cc(F)c1)NC(=O)NS(=O)(=O)N1CCNC(=O)C1)c1ccc2scnc2c1 [CA-151] | > 100000 nM | 1070 nM |
| COCCNS(=O)(=O)NC(=O)N[C@@H](Cc1cc(F)cc(F)c1)C(=O)N(C)c1ccc2scnc2c1 [CA-153] | 9000 nM | 150 nM |
| CCN(C)S(=O)(=O)NC(=O)N[C@@H](Cc1cc(F)cc(F)c1)C(=O)N(C)c1ccc2scnc2c1 [CA-154] | > 50000 nM | 30 nM |
| CN(C(=O)[C@H](Cc1cc(F)cc(F)c1)NC(=O)NS(=O)(=O)N1CCC(O)CC1)c1ccc2scnc2c1 [CA-155] | > 100000 nM | 200 nM |
